Like-named read-outs stand apart in the source and are kept apart here. Where a SMILES comes first, the peptide text is derived from it. [ ]: non-standard residue; d: D form. The star is where a group is joined. NOTA = O=C(O)CN1CCN(CC(=O)O)CCN(CC(=O)*)CC1; NH(4-amidinobenzyl) = N=C(N)c1ccc(CN*)cc1
Columns and labels:
LNCaP xenograft [1] = assay: LNCaP xenograft, systemic (iv) administration; assay type: in vivo, Nu/Nu male mice; conditions: daily 2 mg/kg iv; similar in control group
Procedure: For tumor implantation, trypsin-harvested LNCaP cell suspension was mixed with equal volume of matrigel (BD Biosciences, Bedford, MA) on ice and subcutaneously injected (200 μL) at 4 different sites (left/right hip and left/right shoulder) on Nu/Nu male mice (Charles River Laboratories, LaSalle, Canada) at density of 2 million cells/site. Tumors were periodically measured and the tumor volumes were calculated from the equation: Length•width^2•π/6. When tumors were fully formed and palpable, mice were divided into treatment groups. For intratumoral administration of the compound, 20 μL of peptides (2.5 μg/μL) or vehicle (5% Dimethyl sulfoxide in sterile saline) was administered directly into the tumor at interval of 48 hours. For intra-venous administration experiments, 100 μL of peptide solution (2 mg/kg) or vehicle (saline) was administered through tail vein at interval of 24 hours. The total tumor volume per animal was normalized using the following formula: (total tumor volume/total tumor volume at day 27 × 100). Blood sampling (50–75 μL) from saphenous vein was performed weekly and plasma was stored at −80°C for Prostate-specific antigen (PSA) serum levels determination using a PSA EIA assay (ClinPro International, USA). Mice were housed under pathogen-free conditions and manipulations were performed in a biosafety cabinet. […]

[2] = tested on: LNCaP prostate cancer cell line; assay type: cell-based; conditions: 72 h
Procedure: (§1) Cell lines were obtained from ATCC and maintained in RPMI-1640 5% FBS (DU145) and 10% FBS (LNCaP). For MTT proliferation assays, peptides were added 24 hours after seeding in 96-well plates as previously described and incubated 72 hours prior to addition of MTT reagent (Sigma-Aldrich, Canada) at final concentration of 1 mg/mL [21, 22]. Formazan salt was solubilized with 100 μL Isopropanol: HCl (24:1N) and metabolic activity was normalized relatively to vehicle-treated cells (Sterile bidistilled water). IC50 were determined using Prism 5.0 (GraphPad Software, USA).

[3] = tested on: DU145 prostate cancer cell line; assay type: cell-based; conditions: 72 h
Procedure: as §1

[4] = Pharmacokinetic assay, intravenous 2 mg/kg, LC-MS/MS; assay type: in vivo; conditions: mouse, plasma, CD1 mice; for AUC: read-out: AUC calculated; for half-life: read-out: Half-life (in vivo plasma); for Vd: read-out: Volume of distribution
Procedure: To determine pharmacokinetic profiles of peptides, a single dose of 2 mg/kg was administered into systemic circulation from tail vein of CD1 mice (n = 4 animal/peptide). Blood was micro sampled on individual mouse at time 2.5, 5, 10, 20, 30 and 60 minutes. Plasma was collected by centrifugation and proteins were cleared from plasma using acetonitrile precipitation and supernatant was filtered using 0.2 μm PVDF centrifugal device (Canadian Life Science, Canada). Sample were analysed at PhenoSwitch Bioscience (Sherbrooke, Canada) by LC-MS/MS on a TripleTOF 5600 mass spectrometer (ABSciex, USA) equipped with DuoSpray source. Further information on mass spectrometry analyses and parameters used are presented in supplementary material.

[5] = Ex vivo plasmatic stability assay; assay type: in vitro ADME; conditions: both sexes, CD1; ex vivo mouse plasma; read-out: T½ plasma (converted)
Procedure: (§2) LNCaP cell-based stability assays were performed in Poly-(L)lysine coated 96-wells plates seeded at a density of 1,500 cells/wells. 100 μg of peptides were added 24 hours after plating without media change. Media was collected and mixed with 5 μL of trifluororacetic acid 5% to stop peptide degradation. Ex vivo plasmatic stability assays were performed as previously described. Briefly, compounds (0.5 μg/μL) were incubated with CD1 mouse plasma from mixed-sex animals collected with heparin sodium (Novi, USA). Reaction was stop by addition of 150 μL guanidine HCl and 300 μL of acetonitrile and peptides were extracted by centrifugation. For both in vitro and ex vivo stability assays, peptide stability was assessed from reverse phase HPLC and percentage of remaining peptide was calculated from area under curve and normalized to time 0.

[6] = LNCaP cell-based peptide stability assay; assay type: in vitro ADME; conditions: human, LNCaP cells, HPLC, read-out: T½ LNCaP cells (converted)
Procedure: as §2

[7] = parameters: method as in Kwiatkowska et al [22]; conditions: ex vivo mouse plasma; ref Kwiatkowska et al [22]; cited from earlier work
[8] = biological target: T1, human recombinant and soluble PACE4 (Homo sapiens, UniProt P29122); conditions: ref Kwiatkowska et al [22]; cited from earlier work
T1 construct: made in house; host or cells: S2 insect cells (Drosophila Schneider 2)
T1 sequence (P29122 150-969): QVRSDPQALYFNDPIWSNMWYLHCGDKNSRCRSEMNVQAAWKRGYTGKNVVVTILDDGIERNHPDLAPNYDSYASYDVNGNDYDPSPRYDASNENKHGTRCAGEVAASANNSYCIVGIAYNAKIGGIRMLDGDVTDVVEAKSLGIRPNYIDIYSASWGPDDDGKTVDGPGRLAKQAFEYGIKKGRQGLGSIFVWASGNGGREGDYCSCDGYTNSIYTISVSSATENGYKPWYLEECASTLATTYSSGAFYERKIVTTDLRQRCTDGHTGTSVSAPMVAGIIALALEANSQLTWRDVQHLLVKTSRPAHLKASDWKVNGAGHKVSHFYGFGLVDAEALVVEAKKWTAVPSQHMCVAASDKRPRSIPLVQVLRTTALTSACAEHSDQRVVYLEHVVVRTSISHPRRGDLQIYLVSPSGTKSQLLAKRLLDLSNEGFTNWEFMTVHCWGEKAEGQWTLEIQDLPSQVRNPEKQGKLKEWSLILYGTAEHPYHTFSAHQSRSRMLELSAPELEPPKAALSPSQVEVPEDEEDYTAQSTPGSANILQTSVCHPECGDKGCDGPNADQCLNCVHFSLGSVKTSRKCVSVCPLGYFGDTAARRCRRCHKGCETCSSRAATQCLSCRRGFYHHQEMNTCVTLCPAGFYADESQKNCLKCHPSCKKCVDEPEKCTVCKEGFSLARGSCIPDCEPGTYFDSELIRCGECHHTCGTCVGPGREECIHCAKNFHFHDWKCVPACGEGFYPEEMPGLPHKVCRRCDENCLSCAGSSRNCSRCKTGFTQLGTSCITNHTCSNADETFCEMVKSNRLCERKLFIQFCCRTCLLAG

[9] = tested on: LNCaP prostate cancer cell line; conditions: MTT assay; ref Kwiatkowska et al [22]; cited from earlier work
[10] = tested on: DU145 prostate cancer cell line; conditions: MTT assay; ref Kwiatkowska et al [22]; cited from earlier work
LNCaP xenograft [11] = assay: LNCaP xenograft, intratumoral administration; assay type: in vivo, Nu/Nu male mice; conditions: intra-tumoral, 50 μg/tumor per 48 h; vehicle 400 ± 100%
Procedure: For tumor implantation, trypsin-harvested LNCaP cell suspension was mixed with equal volume of matrigel (BD Biosciences, Bedford, MA) on ice and subcutaneously injected (200 μL) at 4 different sites (left/right hip and left/right shoulder) on Nu/Nu male mice (Charles River Laboratories, LaSalle, Canada) at density of 2 million cells/site. Tumors were periodically measured and the tumor volumes were calculated from the equation: Length•width^2•π/6. When tumors were fully formed and palpable, mice were divided into treatment groups. For intratumoral administration of the compound, 20 μL of peptides (2.5 μg/μL) or vehicle (5% Dimethyl sulfoxide in sterile saline) was administered directly into the tumor at interval of 48 hours. For intra-venous administration experiments, 100 μL of peptide solution (2 mg/kg) or vehicle (saline) was administered through tail vein at interval of 24 hours. […] Blood sampling (50–75 μL) from saphenous vein was performed weekly and plasma was stored at −80°C for Prostate-specific antigen (PSA) serum levels determination using a PSA EIA assay (ClinPro International, USA). Mice were housed under pathogen-free conditions and manipulations were performed in a biosafety cabinet. All experimental procedures were in accordance with the Canadian Council on Animal Care.

[12] = biological target: T1, human recombinant and soluble PACE4; assay: Enzymatic assay, inhibition constant toward PACE4; assay type: biochemical
Procedure: Inhibition constants (Ki) were determined using human recombinant and soluble PACE4 and furin produced in S2 insect cells and purified as previously described. The enzymatic assays were performed as described.

Molecule	clearance [4]	AUC [4]	half-life [4]	Vd [4]	half-life [6]	T½ plasma [7]	further results
CC(=O)N[C@H](CC(C)C)C(=O)N[C@@H](CC(C)C)C(=O)N[C@@H](CC(C)C)C(=O)N[C@@H](CC(C)C)C(=O)N[C@@H](CCCNC(=N)N)C(=O)N[C@H](C(=O)N[C@@H](CCCCN)C(=O)NCc1ccc(C(=N)N)cc1)C(C)C [Ac-[DLeu]LLLRVK-Amba] (Ac-[dL]LLLRVK-{NH(4-amidinobenzyl)})	0.5 ± 0.1 mL/min	2170 ng·h/mL	9 ± 3 min	0.006 ± 0.004 L	> 72 h		body weight loss (LNCaP xenograft [1]): 10%; IC50 [2]: 40 ± 10 µM; IC50 [3]: 25 ± 10 µM; half-life at 0.5 μg/μL [5]: 18 ± 3 h
CC(=O)N[C@H](CC(C)C)C(=O)N[C@@H](CC(C)C)C(=O)N[C@@H](CC(C)C)C(=O)N[C@@H](CC(C)C)C(=O)N[C@@H](CCCNC(=N)N)C(=O)N[C@H](C(=O)N[C@@H](CCCCN)C(=O)N[C@@H](CCCNC(=N)N)C(N)=O)C(C)C [Ac-[DLeu]LLLRVKR-NH2]					38 ± 8 h	8 ± 1 h	Ki PACE4 [8]: 0.023 ± 0.001 µM
CC(=O)N[C@@H](CC(C)C)C(=O)N[C@@H](CC(C)C)C(=O)N[C@@H](CC(C)C)C(=O)N[C@@H](CC(C)C)C(=O)N[C@@H](CCCNC(=N)N)C(=O)N[C@H](C(=O)N[C@@H](CCCCN)C(=O)NCc1ccc(C(=N)N)cc1)C(C)C [Ac-LLLLRVK-Amba] (Ac-LLLLRVK-{NH(4-amidinobenzyl)})							IC50 [9]: 40 ± 15 µM; IC50 [10]: 25 ± 10 µM; mean tumoral volume at day 59 compared to day 25 (LNCaP xenograft [11]): 100 ± 30%
CC(C)C[C@H](NC(=O)[C@H](CC(C)C)NC(=O)[C@H](CC(C)C)NC(=O)[C@@H](CC(C)C)NC(=O)CN1CCN(CC(=O)O)CCN(CC(=O)O)CC1)C(=O)N[C@@H](CCCNC(=N)N)C(=O)N[C@H](C(=O)N[C@@H](CCCCN)C(=O)NCc1ccc(C(=N)N)cc1)C(C)C [NOTA-[DLeu]LLLRVK-Amba] ({NOTA}-[dL]LLLRVK-{NH(4-amidinobenzyl)})							Ki PACE4 [12]: 0.006 ± 0.002 µM
Ac-LLLLRVKR-NH2 [Ac-LLLLRVKR-NH2]	0.6 ± 0.1 mL/min	1670 ng·h/mL	8 ± 5 min	0.008 ± 0.007 L	21 ± 2 h	5.1 ± 0.8 h	
CC(=O)N[C@@H](CC(C)C)C(=O)N[C@@H](CC(C)C)C(=O)N[C@@H](CC(C)C)C(=O)N[C@@H](CC(C)C)C(=O)N[C@@H](CCCN=C(N)N)C(=O)N[C@H](C(=O)N[C@@H](CCCCN)C(=O)NCc1ccc(C(=N)N)cc1)C(C)C [Ac-LLLLRVK-Amba] (Ac-LLLLRVK-{NH(4-amidinobenzyl)})					> 72 h	12 ± 2 h	

From publication PMC4414146, “PACE4 inhibitors and their peptidomimetic analogs block prostate cancer tumor progression through quiescence induction, increased apoptosis and impaired neovascularisation” (Oncotarget, 2015)
